From US20190388437A1, “COMPOSITIONS AND METHODS FOR TREATING BONE AND JOINT INFECTIONS” (priority 2014, published 2019) come the findings set out here.

Format in all cases: cell-based
A short description of assay [1]: Synergy testing by the checkerboard method, FA/co-drug. The following applies: FA combined with the co-drug. The procedure: CLSI broth microdilution (BMD) and anaerobic agar dilution (AD) methods were performed. Modifications of standard test methods included adding 10% human serum, adjusting the medium pH to 5, 6, and 8, and synergy was assessed by the checkerboard method. Mutational rates to R were determined at 4×.

The subject of assay [2] is S. aureus MRSA (Mec A genotype). The experiment in a line: Agar dilution MIC against resistant S. aureus. To be noted: Staphylococcus aureus. The text has this:
(§1) The in vitro activity of CEM-102 was compared with that of telithromycin, azithromycin, erythromycin, levofloxacin, linezolid, and doxycycline against a total of 145 resistant S. aureus by agar dilution procedures (CLSI, M7-A7, M100-S18). The tested strains included S. aureus MRSA (Mec A genotype; 100 isolates), macrolide-resistant (ermA, B, C genotype or MLSb-resistant; 25), and ciprofloxacin-resistant (gyrA and parC genotype; 20).

In assay [3] the test system is ciprofloxacin-resistant (gyrA and parC genotype) S. aureus. The experiment in a line: Agar dilution MIC against resistant S. aureus. To be noted: Staphylococcus aureus.
Excerpt: as §1

The test system of assay [4] is macrolide-resistant S. aureus (ermA, B, C genotype or MLSb-resistant). The experiment in a line: Agar dilution MIC against resistant S. aureus. To be noted: Staphylococcus aureus.
Excerpt: as §1

Assay [5] has as its system S. aureus. The experiment in a line: MIC population distribution, 217 S. aureus Canadian isolates. The following applies: 217 Canadian isolates.
The test system of assay [6] is S. aureus. The experiment in a line: Reference broth microdilution susceptibility testing, Canadian isolates. The following applies: overall S. aureus population. The text has this: (§2) To determine a contemporary susceptibility (S) spectrum pattern. 153 GP isolates (123 S. aureus, 15 coagulase-negative staphylococci [CoNS] and 15 S. pyogenes [SPYO]) were collected from 5 Canadian medical centers between 2001 and 2006.

Another assay relates to S. pyogenes [SPYO]. The description is as above.
Excerpt: as §2

Converted amounts (≈) assume the structure as drawn. Where only a bound is given, the exact number is not on record here.

As for `C[C@H]1COc2c(N3CCN(C)CC3)c(F)cc3c(=O)c(C(=O)O)cn1c23` [Levofloxacin], in assay [1], the “Additive (number)” value was 0, the “Antagonism (number)” value was determined as 0, the “Indeterminate (number)” value was 2 and the “Indifferent (number)” value is given as 4. In addition, in assay [1], the “Synergy Complete (number)” value is given as 0 and the “Synergy Partial (number)” value was found to be 0. Besides, the MIC90 in assay [2] came out at 16 µg/mL (≈ 44.3 µM). The MIC90 in assay [3] was above 32 µg/mL. In addition, the MIC90 in assay [4] stood at 4 µg/mL (≈ 11.1 µM).
Regarding `Cc1onc(-c2ccccc2)c1C(=O)N[C@@H]1C(=O)N2[C@@H]1SC(C)(C)[C@@H]2C(=O)O` [Oxacillin], in assay [1], the “Additive (number)” value is 1, the “Antagonism (number)” value is given as 0, the “Indeterminate (number)” value worked out at 1 and the “Indifferent (number)” value is listed as 3. In assay [1], the “Synergy Complete (number)” value was found to be 0 and the “Synergy Partial (number)” value came out at 1.
For the molecule `CO[C@H]1/C=C/O[C@@]2(C)Oc3c(C)c(O)c4c(O)c(c(/C=N/N5CCN(C)CC5)c(O)c4c3C2=O)NC(=O)/C(C)=C\C=C\[C@H](C)[C@H](O)[C@@H](C)[C@@H](O)[C@@H](C)[C@H](OC(C)=O)[C@@H]1C` [Rifampin], in assay [1], the “Additive (number)” value is 1, the “Antagonism (number)” value is on record as 0, the “Indeterminate (number)” value was determined as 0 and the “Indifferent (number)” value worked out at 0. In assay [1], the “Synergy Complete (number)” value was 0 and the “Synergy Partial (number)” value is 5.
As for `CN[C@H](CC(C)C)C(=O)N[C@H]1C(=O)N[C@@H](CC(N)=O)C(=O)N[C@H]2C(=O)N[C@H]3C(=O)N[C@H](C(=O)N[C@H](C(=O)O)c4cc(O)cc(O)c4-c4cc3ccc4O)[C@H](O)c3ccc(c(Cl)c3)Oc3cc2cc(c3O[C@@H]2O[C@H](CO)[C@@H](O)[C@H](O)[C@H]2O[C@H]2C[C@](C)(N)[C@H](O)[C@H](C)O2)Oc2ccc(cc2Cl)[C@H]1O` [Vancomycin], in assay [1], the “Additive (number)” value was determined as 2, the “Antagonism (number)” value came out at 0, the “Indeterminate (number)” value is given as 0 and the “Indifferent (number)” value is given as 4. In addition, in assay [1], the “Synergy Complete (number)” value is 0 and the “Synergy Partial (number)” value was found to be 0.
Turning to `CC[C@H]1OC(=O)[C@H](C)[C@@H](O[C@H]2C[C@@](C)(OC)[C@@H](O)[C@H](C)O2)[C@H](C)[C@@H](O[C@@H]2O[C@H](C)C[C@H](N(C)C)[C@H]2O)[C@](C)(O)C[C@@H](C)CN(C)[C@H](C)[C@@H](O)[C@]1(C)O` [azithromycin], the MIC90 in assay [2] was above 32 µg/mL; in assay [3] it was 16 µg/mL (≈ 21.4 µM); in assay [4] it was above 32 µg/mL.
With `CCC[C@@H]1C[C@@H](C(=O)N[C@@H]([C@H]2O[C@H](SC)[C@H](O)[C@@H](O)[C@H]2O)[C@H](C)Cl)N(C)C1` [clindamycin], the resistance rate with S. aureus [5] is given as 30.9%. Further, the R rate was found to be 28.5% in the assay on S. aureus [6] and 13.3% in the assay with S. pyogenes [SPYO].
Turning to `C[C@H]1c2cccc(O)c2C(=O)C2=C(O)[C@]3(O)C(=O)C(C(N)=O)=C(O)[C@@H](N(C)C)[C@@H]3[C@@H](O)[C@@H]21` [doxycycline], the MIC90 in assay [2] and in assay [3] was 1 µg/mL (≈ 2.25 µM) in each case.
`CC[C@H]1OC(=O)[C@H](C)[C@@H](O[C@H]2C[C@@](C)(OC)[C@@H](O)[C@H](C)O2)[C@H](C)[C@@H](O[C@@H]2O[C@H](C)C[C@H](N(C)C)[C@H]2O)[C@](C)(O)C[C@@H](C)C(=O)[C@H](C)[C@@H](O)[C@]1(C)O` [erythromycin]: the MIC90 in assay [2], in assay [3] and in assay [4] was above 32 µg/mL each time. In addition, the resistance rate in the assay on S. aureus [5] was 52.1%. In addition, the R rate came to 52.0% with S. aureus [6] and 20.0% in the assay with S. pyogenes [SPYO].
As to `CC(=O)NC[C@H]1CN(c2ccc(N3CCOCC3)c(F)c2)C(=O)O1` [linezolid], the MIC90 in assay [2], in assay [3] and in assay [4] was 2 µg/mL (≈ 5.93 µM) in each case.
In the case of `CC[C@H]1OC(=O)[C@H](C)C(=O)[C@H](C)[C@@H](O[C@@H]2O[C@H](C)C[C@H](N(C)C)[C@H]2O)[C@](C)(OC)C[C@@H](C)C(=O)[C@H](C)[C@H]2N(CCCCn3cnc(-c4cccnc4)c3)C(=O)O[C@]12C` [telithromycin], the MIC90 came to 0.06 µg/mL (≈ 0.0739 µM) in assay [2], 0.06 µg/mL (≈ 0.0739 µM) in assay [3] and 4 µg/mL (≈ 4.93 µM) in assay [4].
Gentamicin: in assay [1], the “Additive (number)” value is 3, the “Antagonism (number)” value came to 0, the “Indeterminate (number)” value is 0 and the “Indifferent (number)” value worked out at 1. In assay [1], the “Synergy Complete (number)” value is given as 1 and the “Synergy Partial (number)” value is 1.
